Measured values taken from BindingDB's records for patent US20260055079 (Azkarra Therapeutics, 2026).

Columns and labels:
[1] = target: T1, Protein mono-ADP-ribosyltransferase TIPARP (Homo sapiens, UniProt Q7Z3E1); test: PARP7 Biochemical Assay
T1 sequence (Q7Z3E1 whole entry): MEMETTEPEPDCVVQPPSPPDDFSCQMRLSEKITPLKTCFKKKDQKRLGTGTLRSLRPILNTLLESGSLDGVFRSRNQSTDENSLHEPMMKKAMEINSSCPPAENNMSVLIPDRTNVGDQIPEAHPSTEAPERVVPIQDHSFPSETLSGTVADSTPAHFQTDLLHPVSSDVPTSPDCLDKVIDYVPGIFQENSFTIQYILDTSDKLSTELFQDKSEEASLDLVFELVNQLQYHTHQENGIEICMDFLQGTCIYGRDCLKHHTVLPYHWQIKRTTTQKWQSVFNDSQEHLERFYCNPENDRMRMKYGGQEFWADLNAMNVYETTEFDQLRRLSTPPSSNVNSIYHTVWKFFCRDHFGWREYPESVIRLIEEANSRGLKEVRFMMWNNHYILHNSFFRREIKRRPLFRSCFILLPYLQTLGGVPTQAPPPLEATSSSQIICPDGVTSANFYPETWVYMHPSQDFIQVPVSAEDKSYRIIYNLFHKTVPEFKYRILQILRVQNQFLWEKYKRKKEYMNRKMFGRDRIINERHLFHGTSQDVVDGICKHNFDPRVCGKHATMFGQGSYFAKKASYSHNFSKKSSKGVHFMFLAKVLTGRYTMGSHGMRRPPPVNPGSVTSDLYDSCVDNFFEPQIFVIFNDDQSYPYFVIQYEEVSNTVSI
Protocol: 23 μL of 100 nM His-GST-PARP7 in PARP buffer for reaction (PBR) (50 mM HEPES pH 7.5, 100 mM NaCl, 4 mM MgCl2, 0.2 mM TCEP) was added to each well of XpressBio GSH-coated 384 well plates and incubated for 1 h at RT. The plate was then washed for 3 times in 50 μL PBST (1×PBS, 0.02% Tween-20), followed by one wash in 1×PBS and one wash PBR. Each wash was incubated for 3 min. After washing, varying concentrations of each inhibitor was pre-incubated with 20 μM (2×) 6-a-NAD+. The solution was added to the plate, diluted to 1× in PBR, and incubated at 30° C. for 90 min. Following the enzymatic reaction, the plate was washed 3 times in PBST, once in PBS for 3 min each wash. The wells were then subjected to 25 μL of click reaction buffer consisting of 100 μM TBTA, 1 mM CuSO4, 100 μM Biotin-N3, 2 mM TCEP made up in 1×PBS. The wells were incubated in click reaction buffer for 30 min at 30° C. The click buffer was removed, and the plate was washed 3 times with PBST and once with PBS as before. The plate was then blocked with 5% BSA in PBST. The plate was then washed 3 times with PBST and once with PBS. To develop, the plate was incubated with 25 μL of 0.05 ng/μL Step-HRP with 0.02% BSA in PBS. The plate was washed 3 times with PBS before developing with QuantaRed per manufacturer directions. Fluorescence (Excitation 550 nm. Emission 620 nm) was immediately read using a Paradigm Plate Reader.

[2] = target: Poly [ADP-ribose] polymerase 2 (Homo sapiens, UniProt Q9UGN5); test: Protocol for the PARP1 and PARP2 Biochemical Assays
Chain of Poly [ADP-ribose] polymerase 2 (Q9UGN5 whole entry): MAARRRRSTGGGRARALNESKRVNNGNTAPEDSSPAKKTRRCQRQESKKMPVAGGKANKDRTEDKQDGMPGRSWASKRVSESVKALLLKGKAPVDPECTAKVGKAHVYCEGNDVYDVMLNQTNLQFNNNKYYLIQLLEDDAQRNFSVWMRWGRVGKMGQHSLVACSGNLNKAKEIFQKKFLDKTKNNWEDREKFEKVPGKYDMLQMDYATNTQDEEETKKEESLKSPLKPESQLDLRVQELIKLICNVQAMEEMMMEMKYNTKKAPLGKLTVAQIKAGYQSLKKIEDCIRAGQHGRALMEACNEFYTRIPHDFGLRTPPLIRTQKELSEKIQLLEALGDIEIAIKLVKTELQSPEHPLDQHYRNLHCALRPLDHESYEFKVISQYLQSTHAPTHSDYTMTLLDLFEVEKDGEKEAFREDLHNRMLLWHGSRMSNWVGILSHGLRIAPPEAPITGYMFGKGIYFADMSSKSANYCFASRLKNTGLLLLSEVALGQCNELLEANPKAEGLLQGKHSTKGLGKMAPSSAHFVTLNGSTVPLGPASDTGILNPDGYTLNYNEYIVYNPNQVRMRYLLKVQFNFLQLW
Protocol: (§1) Each wash was incubated for 3 min. After washing, varying concentrations of each inhibitor was pre-incubated with 20 μM (2×) 6-a-NAD+. 25 μL of the 2×6-a-NAD+/inhibitor mixture was added to the plate with 25 μL of 20 nM of PARP1 or PARP2 in PBR with 0.1 mg/mL Activated DNA (Sigma). PARP final concentration 10 nM. The reaction mixture was incubated at 30° C. for 1 h. The plate was then washed 3 time with PBST and once with PBS. The wells were subjected to a 50 μL click reaction consisting of 100 μM TBTA, 1 mM CuSO4. 100 μM Biotin-N3, 2 mM TCEP made up in 1×PBS at RT for 30 min. The plate was then washed 3 times with PBST before blocking in 100 μL of 1% Milk (Carnation) in PBST at RT for 30 min. The plate was again washed 3 times with PBST and once with PBS before incubation with Strep-HRP (0.05 ng/μL Strep-HRP (Fisher Scientific), 300 ng/μL BSA, 1×PBS) for 30 min at RT. The plate was washed 3 time in PBST and once with PBS before development with QuantaRed (Pierce) per manufacturer directions.

[3] = target: Poly [ADP-ribose] polymerase 1 (Homo sapiens, UniProt P09874); test: as above
Chain of Poly [ADP-ribose] polymerase 1 (P09874 whole entry): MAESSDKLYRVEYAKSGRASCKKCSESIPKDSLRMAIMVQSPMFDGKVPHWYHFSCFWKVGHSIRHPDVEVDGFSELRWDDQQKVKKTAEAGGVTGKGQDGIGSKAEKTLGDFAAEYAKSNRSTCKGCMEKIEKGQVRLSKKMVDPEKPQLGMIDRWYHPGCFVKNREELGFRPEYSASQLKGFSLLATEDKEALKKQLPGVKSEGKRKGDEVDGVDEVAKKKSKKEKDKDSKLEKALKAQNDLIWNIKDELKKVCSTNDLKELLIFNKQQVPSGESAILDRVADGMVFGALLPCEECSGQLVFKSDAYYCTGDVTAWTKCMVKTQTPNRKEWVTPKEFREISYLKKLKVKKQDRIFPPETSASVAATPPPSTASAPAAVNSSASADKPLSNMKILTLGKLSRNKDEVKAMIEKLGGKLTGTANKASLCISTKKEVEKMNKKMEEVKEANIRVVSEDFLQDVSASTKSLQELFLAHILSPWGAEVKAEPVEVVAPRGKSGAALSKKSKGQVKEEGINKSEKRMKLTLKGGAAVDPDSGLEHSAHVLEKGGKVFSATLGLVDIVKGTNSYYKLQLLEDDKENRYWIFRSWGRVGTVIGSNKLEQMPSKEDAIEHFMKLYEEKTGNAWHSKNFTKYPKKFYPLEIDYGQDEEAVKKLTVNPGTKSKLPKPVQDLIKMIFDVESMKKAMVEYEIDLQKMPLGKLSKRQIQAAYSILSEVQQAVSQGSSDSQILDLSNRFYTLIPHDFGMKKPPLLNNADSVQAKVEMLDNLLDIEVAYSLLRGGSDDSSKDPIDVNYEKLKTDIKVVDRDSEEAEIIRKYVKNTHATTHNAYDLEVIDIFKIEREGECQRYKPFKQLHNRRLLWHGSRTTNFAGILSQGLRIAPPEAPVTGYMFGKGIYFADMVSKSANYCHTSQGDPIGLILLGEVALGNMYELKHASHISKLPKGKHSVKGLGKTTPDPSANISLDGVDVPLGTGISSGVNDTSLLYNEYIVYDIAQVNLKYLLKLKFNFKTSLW
Protocol: as §1

N#Cc1ccc(N2CCN(C(=O)c3cc(Cc4n[nH]c(=O)c5ccc(CCC(F)(F)F)cc45)ccc3F)CC2)nc1 [US20260055079, Example 25]
IC50 [1]: < 50 nM

N#Cc1ccc(N2CCN(C(=O)c3cc(Cc4n[nH]c(=O)c5ccc(/C=C/C(F)(F)F)cc45)ccc3F)CC2)nc1 [US20260055079, Example 27]
IC50 [1]: < 50 nM

CCc1ccc2c(=O)[nH]nc(Cc3ccc(F)c(C(=O)N4CCN(c5ncc(C(F)(F)F)cn5)CC4)c3)c2c1 [US20260055079, Example 43]
IC50 [1]: < 50 nM

CC#Cc1ccc2c(=O)[nH]nc(Cc3ccc(F)c(C(=O)N4CCN(c5ncc(C(F)(F)F)cn5)CC4)c3)c2c1 [US20260055079, Example 48]
IC50 [2]: > 2000 nM

N#Cc1cnc(N2CCN(C(=O)c3cc(Cc4n[nH]c(=O)c5ccc(OC6CCC6)cc45)ccc3F)CC2)cc1C(F)(F)F [US20260055079, Example 132]
IC50 [2]: > 2000 nM | IC50 [3]: > 2000 nM | IC50 [1]: < 50 nM
